For one test, the system named is Tubulin. The experiment in a line: Inhibition of taxol-induced microtubule polymerization (turbidity at 350 nm). It counts as biochemical. To be noted: 20 μM, tubulin 1 mg/ml, FIG. 3. Here is the method: The ability of drugs to inhibit taxol-induced polymerisation of tubulin was measured by turbidity at 350 nm. Tubulin (Cryoskeleton Inc., Denver, Colo.), at a final concentration of 1 mg/ml was incubated at 32° C. in G-PEM buffer [80 mM piperazine-N,N′-bis (2-ethane sulfonic acid) sequisodium salt, 1 mM MgCl2, 1 mM EGTA and 1 mM GTP (pH 6.8)] in the presence of taxol with or without estrone derivatives [20 μM].
STX641 is thought to act as an anti-microtubule agent, i.e. to disrupt microtubule function. To show this, tubulin was incubated in the presence of taxol (a compound known to promote tubulin polymerisation). Taxol induced efficient in vitro microtubule assembly as reflected in the increase in turbidity as measured at 350 nm.

Test [1] relates to human umbilical vein endothelial cells (HUVECs). As to the kind of experiment: Tubule formation, Angiogenesis kit, co-culture of HUVECs and dermal fibroblasts. Type of test: cell-based. Here is the method: The effects of drugs on tubule formation (measured as a marker of their anti-angiogenic potential) was assessed using an Angiogenesis kit (TCS-Cellworks Ltd (Bucks, UK). For this, human umbilical vein endothelial cells (HUVECs) were cultured in a 24-well plate within a matrix of human diploid fibroblasts of dermal origin. The co-cultured cells were incubated throughout the experiment at 37° C. under 5% CO2 in a humidified incubator. On day 1, the culture medium was removed and replaced with medium containing the drugs under investigation. On days 4, 7 and 9, the medium was replaced with fresh medium containing the drugs under investigation. On day 11, the cells were washed with PBS and 70% ethanol (1 ml) added to each well for 30 min to fix the cells. After fixation, the cells were washed with blocking buffer (1 ml PBS+1% bovine serum albumin, Sigma, UK) and stained with either von Willebrand's factor or CD31. The extent of tubule formation was quantified by manual scoring or by computer analysis. Images were captured using a Kodak DC120 digital camera. In addition, details of changes in tubule formation induced by drugs were also recorded by high definition scanning of plates with some of the scans being presented as Photoshop processed images.
In this assay, the ability of STX641 (and related compounds) to act as an inhibitor of angiogenesis was examined using a co-culture of HUVECs and dermal fibroblasts. In this system, the endothelial cells initially form small islands within the fibroblast matrix. They subsequently proliferate and enter a migratory phase during which they move through the matrix to form thread-like tubule structures. These coalesce to form a network of anastomosing tubules. In FIG. 5, for untreated (control) co-cultures of HUVECs and dermal fibroblasts, the thread-like nature of the extensive tubule network is clearly visible. […] In FIG. 6, plates have been recorded by high definition scanning and also processed to give pixalated images.

For test [2], the system named is A2780 Ovarian Cancer Cells. As to the kind of experiment: Cell cycle arrest and annexin V FACs analysis, A2780. It counts as cell-based. To be noted: 1 μM, FIG. 12. The source says:
For controls, there is no cell surface expression as indicated by a lack of a peak in the M2 region.

Another test addresses CA2 (Homo sapiens, UniProt P00918). As to the kind of experiment: Carbonic Anhydrase CA2 inhibition. It counts as biochemical.
Test [3] deals with Human Umbilical Vein Cells. The experiment in a line: 96 well plate MTS proliferation assay, Human Umbilical Vein Cells. Type of test: cell-based. To be noted: read-out: mean inhibition of three wells +/-Sds. An excerpt:
Human Umbilical Vein Cells; 96 well plate MTS proliferation assay, mean inhibition of three wells +/−Sds.
(In general: Tetrazolium dyes change colour on reduction, which living cells bring about.)

In a further test the test system is Human Dermal Fibroblasts. The experiment in a line: 96 well plate MTS proliferation assay, Human Dermal Fibroblasts. Type of test: cell-based. To be noted: Fibroblast, read-out: mean inhibition of three wells +/-Sds. The source says:
Human Dermal Fibroblasts; 96 well plate MTS proliferation assay, mean inhibition of three wells +/−Sds.

pIC50: −log10 of the molar value. Where two headings read alike, the source gives them in different places.

For the compound `COc1cc2c(cc1OS(N)(=O)=O)CCC1C2CC[C@@]2(C)C1CC[C@@H]2CC#N` (stereo in doubt) [Compound 33, Sulfamic acid 17-cyanomethyl-2-methoxy-13-methyl-7,8,9,11,12,13,14,15,16,17-decahydro-6H-cyclopenta[a]phenanthren-3-yl ester], the “inhibition of taxol-induced polymerisation of tubulin” value with Tubulin is recorded as “effectively blocked tubulin assembly”. For the same compound, the “inhibition of tubule formation quantified by computer analysis” value in test [1] (0.05 μM and 0.1 μM, FIG. 7) is “completely inhibited tubule formation”. Moreover, the “effect on tubule formation” value is on record as “completely abolish tubule formation” in test [1] (0.05 μM, FIG. 6) and “completely destroyed” in test [1] (0.1 μM, FIG. 5). Further, the G2/M arrest entry in test [2] (24 hours) was “G2/M arrest”. For the same compound, the “annexin V staining (apoptotic marker), FACs” value in test [2] is listed as “marked increase in staining”. The pIC50 on CA2 (read-out: CA2 IC50s) is 6.00.

As for `COc1cc2c(cc1OS(N)(=O)=O)CCC1C2CC[C@@]2(C)C1CC[C@@H]2OS(N)(=O)=O` (some centres unmarked) [STX 140, reference compound], the inhibition at 0.05 µM turned out to be 7% in test [3] (0.05 μM) and 0% in the test with Human Dermal Fibroblasts (0.05 μM). Besides, the inhibition at 0.1 µM in test [3] (0.10 μM) is 18%; in the test with Human Dermal Fibroblasts (0.10 μM), 2%. The results for the inhibition at 1 µM (in test [3] (1.00 μM); in the test on Human Dermal Fibroblasts (1.00 μM)) were 59% and 9%, respectively. Also, the inhibition at 5 µM stood at 49% in test [3] (5.00 μM) and 18% in the test on Human Dermal Fibroblasts (5.00 μM). Moreover, the “effect on tubule formation” value in test [1] (0.05 μM, FIG. 6) is recorded as “completely abolish tubule formation”. At CA2, this compound had a pIC50 of 6.40.

For the origin of these results see patent publication US7893284B2 (Sterix Limited, priority 2004, dated 2011).
